Results from patent US12391686B2, “Compounds and uses thereof” (Foghorn Therapeutics Inc., priority 2019, dated 2025).
Read-outs that look alike come from different tables or passages of the source.

Target: T1, Nanoluciferase-BRD9 fusion protein (3×FLAG-NLuc-BRD9) in SYO-1 cells (Homo sapiens, UniProt Q9H8M2)
T1 construct: expressed in transfected cells; host or cells: SYO-1
T1 sequence (Q9H8M2 1-597): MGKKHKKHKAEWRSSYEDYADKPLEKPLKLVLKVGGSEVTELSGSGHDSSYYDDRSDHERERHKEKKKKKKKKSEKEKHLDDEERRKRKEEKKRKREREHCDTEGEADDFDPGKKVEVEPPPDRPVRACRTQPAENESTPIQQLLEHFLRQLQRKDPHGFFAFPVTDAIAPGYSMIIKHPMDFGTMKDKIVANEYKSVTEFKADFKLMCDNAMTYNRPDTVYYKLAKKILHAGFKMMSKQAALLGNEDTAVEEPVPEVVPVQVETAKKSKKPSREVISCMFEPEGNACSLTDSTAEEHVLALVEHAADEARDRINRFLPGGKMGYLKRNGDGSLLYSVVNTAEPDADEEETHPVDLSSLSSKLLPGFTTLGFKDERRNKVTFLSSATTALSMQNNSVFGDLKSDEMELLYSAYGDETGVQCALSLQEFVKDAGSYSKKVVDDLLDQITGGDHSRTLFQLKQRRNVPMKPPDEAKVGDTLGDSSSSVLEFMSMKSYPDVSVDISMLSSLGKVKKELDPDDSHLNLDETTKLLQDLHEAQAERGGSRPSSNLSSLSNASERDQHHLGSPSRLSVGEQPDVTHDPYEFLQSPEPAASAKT
Test: SYO1 BRD9 NanoLuc Degradation Assay
Format: cell-based
Conditions: SYO-1 cells expressing 3×FLAG-NLuc-BRD9, 6 hours incubation, 1 μM top dose, read-out: SYO1 BRD9-NanoLuc degradation IC50
Experimental: Procedure: A stable SYO-1 cell line expressing 3×FLAG-NLuc-BRD9 was generated. On day 0 cells were seeded in 30 μL media into each well of 384-well cell culture plates. The seeding density was 8000 cells/well. On day 1, cells were treated with 30 nL DMSO or 30 nL of 3-fold serially DMSO-diluted compounds (10 points in duplicates with 1 μM as final top dose). Subsequently plates were incubated for 6 hours in a standard tissue culture incubator and equilibrated at room temperature for 15 minutes. Nanoluciferase activity was measured by adding 15 μL of freshly prepared Nano-Glo Luciferase Assay Reagent (Promega N1130), shaking the plates for 10 minutes and reading the bioluminescence using an EnVision reader.
Results: The Inhibition % was calculated using the following formula: % Inhibition=100×(LumHC−Lumsample)/(LumHC−LumLC). DMSO treated cells are employed as High Control (HC) and 1 μM of a known BRD9 degrader standard treated cells are employed as Low Control (LC).

SMILES	DC50 (Table 6B) [nM]	DC50 (Table 6C) [nM]
COc1cc(-c2cn(C)c(=O)c3cnc(N(C)C)cc23)cc(OC)c1CC1CCN(c2ccc3c(c2)C(=O)N(C2CCC(=O)NC2=O)C3=O)CC1 (stereo not shown) [Compound D133]	< 10	–
COc1cc2c(-c3cc(OC)c(CN4CC(CN5CCC6(CC5)CN(c5ccc7c(c5)C(=O)N(C5CCC(=O)NC5=O)C7)C6)C4)c(OC)c3)cn(C)c(=O)c2cn1 (stereo not shown) [Compound D184]	< 10	–
COc1cc(-c2cn(C)c(=O)c3cnc(N4CCC4)cc23)cc(OC)c1CN1CCC2(CC1)CN(c1ccc3c(c1)C(=O)N(C1CCC(=O)NC1=O)C3)C2 (stereo not shown) [Compound D142]	< 10	–
COc1cc(-c2cn(C)c(=O)c3cnc(N(C)C)cc23)cc(OC)c1CN1CCC2(CCN(c3ccc4c(c3)C(=O)N(C3CCC(=O)NC3=O)C4=O)C2)C1 (stereo not shown) [Compound D90]	< 10	–
COc1cc(-c2cn(C)c(=O)c3cnc(N4CCOCC4)cc23)cc(OC)c1CN1CCN(c2ccc3c(c2)C(=O)N(C2CCC(=O)NC2=O)C3=O)CC1 (stereo not shown) [Compound D141]	< 10	–
COc1cc(-c2cn(C)c(=O)c3cnc(N(C)C)cc23)cc(OC)c1CN1CCC2(C1)CN(c1ccc3c(c1)C(=O)N(C1CCC(=O)NC1=O)C3=O)C2 (stereo not shown) [Compound D91]	< 10	–
[2H]C1CC(N2Cc3cc(N4CCC(CCN5CCN(Cc6c(OC)cc(-c7cn(C)c(=O)c8cnc(N9CCC9)cc78)cc6OC)CC5)CC4)ccc3C2=O)C(=O)NC1=O (stereo not shown) [Compound D245]	–	< 10
[2H]C([2H])([2H])Oc1cc2c(-c3cc(OC)c(CN4CCN(CCC5CCN(c6ccc7c(c6)C(=O)N(C6CCC(=O)NC6=O)C7)CC5)CC4)c(OC)c3)cn(C)c(=O)c2cn1 (stereo not shown) [Compound D198]	–	< 10
COc1cc(-c2cn(C)c(=O)c3cnc(N(C)C)cc23)cc(OC)c1CN1CCN(c2ccn3c(=O)n(C4CCC(=O)NC4=O)nc3c2)CC1 (stereo not shown) [Compound D154]	< 10	–
COc1cc(-c2cn(C)c(=O)c3cnc(N(C)C)cc23)cc(OC)c1CN1CC(Oc2ccn3c(=O)n(C4CCC(=O)NC4=O)nc3c2)C1 (stereo not shown) [Compound D138]	< 10	–
COc1cc(-c2cn(C)c(=O)c3cnc(N4CCC4)cc23)cc(OC)c1CN1CCC(c2ccc3c(c2)C(=O)N(C2CCC(=O)NC2=O)C3)CC1 (stereo not shown) [Compound D313]	–	< 10
COc1cc(-c2cn(C)c(=O)c3cnc(C4CC4)cc23)cc(OC)c1CN1CCC(CN2CCC3(CC2)CC(Oc2ccc4c(c2)C(=O)N(C2CCC(=O)NC2=O)C4=O)C3)CC1 (stereo not shown) [Compound D301]	–	< 10
COc1cc(-c2cn(C)c(=O)c3cnc(N(C)C)cc23)cc(OC)c1CN1CCC(C(C)(C)N2CCC3(CC2)CC(Oc2ccc4c(c2)C(=O)N(C2CCC(=O)NC2=O)C4=O)C3)CC1 (stereo not shown) [Compound D108]	< 10	–
COc1cc(-c2cn(C)c(=O)c3cnc(N4CC(F)C4)cc23)cc(OC)c1CN1CC(CN2CCC3(CC2)CN(c2ccc4c(c2)C(=O)N(C2CCC(=O)NC2=O)C4)C3)C1 (stereo not shown) [Compound D200]	–	< 10
COc1cc(-c2cn(C)c(=O)c3cnc(N(C)C)cc23)cc(OC)c1CN1Cc2cc3c(cc2C1)C(=O)N(C1CCC(=O)NC1=O)C3=O (stereo not shown) [Compound D86]	< 10	–
C/C=C/Cn1cc(-c2cc(OC)c(CN3CCN(CCC4CCN(c5ccc6c(c5)C(=O)N(C5CCC(=O)NC5=O)C6=O)CC4)CC3)c(OC)c2)c2cc(N(C)C)ncc2c1=O (stereo not shown) [Compound D151]	< 10	–
COc1cc(-c2cn(C)c(=O)c3cnc(N4CCOCC4)cc23)cc(OC)c1CN1CCC(CN2CCC3(CC2)CC(Oc2ccc4c(c2)C(=O)N(C2CCC(=O)NC2=O)C4)C3)CC1 (stereo not shown) [Compound D194]	–	< 10
COc1cc(-c2cn(C)c(=O)c3cnc(N(C)C)cc23)cc(F)c1CN1CCC(CCN2CCN(c3ccc4c(c3)C(=O)N(C3CCC(=O)NC3=O)C4=O)CC2)CC1 (stereo not shown) [Compound D41]	< 10	–
COc1cc(-c2cn(C)c(=O)c3cnc(N(C)C)cc23)cc(Cl)c1CN1CCC(C(=O)N2CCC3(CC2)CC(Oc2ccc4c(c2)C(=O)N(C2CCC(=O)NC2=O)C4=O)C3)CC1 (stereo not shown) [Compound D102]	< 10	–
COc1cc(-c2cn(C)c(=O)c3cnc(N4CCC4)cc23)cc(OC)c1CN1CCC(C(=O)N2CCC3(CC2)CC(Oc2ccc4c(c2)C(=O)N(C2CCC(=O)NC2=O)C4=O)C3)CC1 (stereo not shown) [Compound D79]	< 10	–

SMILES	DC50 (Table 6B) [nM]	DC50 (Table 6C) [nM]
COc1cc(-c2cn(C)c(=O)c3cnc(N4CCC4)cc23)cc(OC)c1CN1CCC2(CC1)CN(c1ccc3c(c1)CN(C1CCC(=O)NC1=O)C3=O)C2 (stereo not shown) [Compound D310]	–	< 10
COc1cc(-c2cn(C)c(=O)c3cnc(N(C)C)cc23)cc(OC)c1CN1CC(CN2CCC3(CC2)CC(Oc2ccc4c(c2)C(=O)N(C2CCC(=O)NC2=O)C4=O)C3)C1 (stereo not shown) [Compound D67]	< 10	–
COc1cc(-c2cn(C)c(=O)c3cnc(N(C)C)cc23)cc(OC)c1CN(C)C12CC(C(=O)NCCCCCOc3ccc4c(c3)C(=O)N(C3CCC(=O)NC3=O)C4=O)(C1)C2 (stereo not shown) [Compound D40]	< 10	–
COc1cc(-c2cn(C)c(=O)c3cnc(N(C)C)cc23)cc(OC)c1CN1CCC(C(=O)N2CCC3(CC2)CC(Oc2cc4c(cc2F)C(=O)N(C2CCC(=O)NC2=O)C4=O)C3)CC1 (stereo not shown) [Compound D118]	< 10	–
COc1cc(-c2cn(C)c(=O)c3cnc(N(C)C)cc23)c2c(c1)N(CCCCCCCCOc1ccc3c(c1)C(=O)N(C1CCC(=O)NC1=O)C3=O)CC2 (stereo not shown) [Compound D45]	100 to 1000	–
COc1cc(-c2cn(C)c(=O)c3cnc(N(C)C)cc23)cc(OC)c1CN1CCN(C2(COc3ccc4c(c3)C(=O)N(C3CCC(=O)NC3=O)C4=O)COC2)CC1 (stereo not shown) [Compound D95]	< 10	–
COc1cc(-c2cn(C)c(=O)c3cnc(N(C)C)cc23)cc(OC)c1CN1CCN(C[C@H](C)Oc2ccc3c(c2)C(=O)N(C2CCC(=O)NC2=O)C3=O)CC1 (stereo partly shown) [Compound D83]	< 10	–
COc1cc(-c2cn(C)c(=O)c3cnc(N4CC(F)(F)C4)cc23)cc(OC)c1CN1CC(CN2CCC3(CC2)CN(c2ccc4c(c2)C(=O)N(C2CCC(=O)NC2=O)C4)C3)C1 (stereo not shown) [Compound D211]	–	< 10
COc1cc(-c2cn(C)c(=O)c3cnc(C(F)(F)F)cc23)cc(OC)c1CN1CCN(CCC2CCN(c3ccc4c(c3)CN(C3CCC(=O)NC3=O)C4=O)CC2)CC1 (stereo not shown) [Compound D309]	–	< 10
COc1cc(-c2cn(C)c(=O)c3cnc(N4CCC4)cc23)cc(OC)c1CN1CC(C(C)(C)N2CCC3(CC2)CN(c2ccc4c(c2)C(=O)N(C2CCC(=O)NC2=O)C4)C3)C1 (stereo not shown) [Compound D192]	–	< 10
COc1cc(-c2cn(C)c(=O)c3cnc(N(C)C)cc23)cc(OC)c1CN1CCC(CN2CCC3(CC2)CN(c2ccc4c(c2)C(=O)N(C2CCC(=O)NC2=O)C4=O)C3)CC1 (stereo not shown) [Compound D125]	< 10	–
COc1cc(-c2cn(C)c(=O)c3cnc(N(C)C)cc23)cc(OC)c1CN1CC(CN2CC3(CCN(c4ccc5c(c4)C(=O)N(C4CCC(=O)NC4=O)C5=O)C3)C2)C1 (stereo not shown) [Compound D49]	< 10	–
CCN(CC)c1cc2c(-c3cc(OC)c(CN4CCN(CCC5CCN(c6ccc7c(c6)C(=O)N(C6CCC(=O)NC6=O)C7=O)CC5)CC4)c(OC)c3)cn(C)c(=O)c2cn1 (stereo not shown) [Compound D115]	< 10	–
COc1cc(-c2cn(C)c(=O)c3cnc(N4CCC4)cc23)cc(OC)c1CN1CC(CN2CCC3(CC2)CN(c2ccc4c(c2)CN(C2CCC(=O)NC2=O)C4=O)C3)C1 (stereo not shown) [Compound D153]	< 10	–
C=CCn1cc(-c2cc(OC)c(CN3CCN(CCC4CCN(c5ccc6c(c5)C(=O)N(C5CCC(=O)NC5=O)C6=O)CC4)CC3)c(OC)c2)c2cc(N(C)C)ncc2c1=O (stereo not shown) [Compound D134]	< 10	–
COc1cc(-c2cn(C)c(=O)c3cnc(N(C)C)cc23)cc(OC)c1CN1CCC(C(=O)N2CCC3(CC2)CC(Oc2ccc4c(c2)C(=O)N(C2CCC(=O)NC2=O)C4=O)C3)CC1 (stereo not shown) [Compound D55]	< 10	–
COc1cc(-c2cn(C)c(=O)c3cnc(N(C)C)cc23)cc(OC)c1CN1CC(c2ccc3c(c2)C(=O)N(C2CCC(=O)NC2=O)C3=O)C1 (stereo not shown) [Compound D132]	< 10	–
COc1cc(-c2cn(C)c(=O)c3cnc(N(C)C)cc23)cc(OC)c1CN(C)C12CC(C(=O)NCCCCCOc3cccc4c3C(=O)N(C3CCC(=O)NC3=O)C4=O)(C1)C2 (stereo not shown) [Compound D34]	< 10	–
COc1cc(-c2cn(C)c(=O)c3cnc(N4CC(F)C4)cc23)cc(OC)c1CN1CCC(CN2CCC3(CC2)CN(c2ccc4c(c2)C(=O)N(C2CCC(=O)NC2=O)C4)C3)CC1 (stereo not shown) [Compound D206]	–	< 10
COc1cc(-c2nn(C)c(=O)c3cnc(N4CCC4)cc23)cc(OC)c1CN1CCC(CN2CCC3(CC2)CC(Oc2ccc4c(c2)C(=O)N(C2CCC(=O)NC2=O)C4)C3)CC1 (stereo not shown) [Compound D283]	–	100 to 1000
